Test results reported in patent US20250283019A1, “NEURO-INTEGRATED BIOREACTOR SYSTEM FOR STUDYING JOINT PAIN AND TREATMENT THEREOF” (University of Pittsburgh - Of the Commonwealth System of …, priority 2022, published 2025).

Legend:
DRG neurons = test: Spiking of DRG neurons on MEAs in the central chamber of the neu-microJoint bioreactor in response to KCl; format: cell-based; settings: 30 mM KCl; DRG neurons cultured on MEAs for 4 days; screened with 10, 30 and 50 mM; little to no spontaneous activity at baseline
Protocol: Acutely dissociated DRG neurons are plated in the neural chamber and cultured in 2D at a density of […] to enable recording of neural activity, for example with microelectrodes or MEAs embedded in the floor of the chamber.
To enable recording of neural activity, sensory neurons are plated on a high-density microelectrode array (MEA) embedded in the floor of the neuron bioreactor chamber. Additionally, over the course of 28 days, the neurites reach the synovium, bone, and adipose chambers. In addition, they are functional, as assessed by the ability to maintain physiological cytosolic Ca^2+ concentrations (˜100 nM), a healthy resting membrane potential <−50 mV, and overshooting action potentials in response to physiological stimuli.
DRG neurons cultured on MEAs for 4 days in the central chamber of the neu-microJoint bioreactor were screened with increasing concentrations of KCl (10, 30, and 50 mM) to detect spiking.

sensory neurons = test: Sensitization of sensory neurons in fura-2 Ca2+ imaging and whole cell patch recordings; format: cell-based
From the text: Macrophages can be added to any of the tissue scaffolds in the bioreactor to assess their contribution to joint pain modeled by the neu-microJoint bioreactor. M1 macrophages are a classically activated pro-inflammatory cell type that express pro-inflammatory cytokines, chemokines and many other substances. M2 macrophages are alternatively activated and have an anti-inflammatory pro-tissue regenerative phenotype.

[1] = tested on: cartilage (in the upper part of the bone/cartilage chamber); test: IL1β OA model in the neu-microJoint bioreactor: mRNA expression in cartilage; format: cell-based, human; settings: IL1β applied to the synovium flow only; cartilage not directly exposed; 10 ng/mL for 1 week
From the text: For the tissue scaffolds containing synovial cells, adipose cells, chondrocytes, or osteocytes, human mesenchymal stem cells (MSCs, >98% positive to CD73, 90, 105 and >99% negative to CD31, 34, 45, capable of colony formation and trilineage differentiation) or human iPSCs-derived MSCs (iMPCs) are encapsulated in photo-crosslinked gelatin scaffolds, and then subjected to tissue specific media to generate individual synovium, adipose, osteochondral tissues, as well as an additional individual macrophage component. After maturation, these tissue constructs are assembled with the chamber body inserts as described herein and inserted into the outer chambers of the neu-microJoint bioreactor, the fluid conduits are tapped and connected to suitable tubing, and tissue culture medium is pumped through the device to perfuse the tissue scaffolds. […]
Since IL1β that is used to generate the OA model is only applied to the flow of synovium, it indirectly stimulates the other tissues. […] As this may be part of the OA process, retrograde tracers may be used to distinguish activity in neurons innervating the synovium chamber from those innervating other chambers, and corresponding neural activity is monitored.

Compound	sensitization of sensory neurons (sensory neurons)	also measured
[Cl-].[K+] [KCl]		spiking activity of DRG neurons (DRG neurons): activity was detected
CCCCC[C@H](O)/C=C/[C@H]1[C@H](O)CC(=O)[C@@H]1C/C=C\CCCC(=O)O [PGE2, prostaglandin E2]	sensitize sensory neurons	
IL1β: cytokine used to trigger OA conditions in the outer chambers		ADAMTS 4 mRNA expression in cartilage [1]: significant increases; MMP13 mRNA expression in cartilage [1]: significant increases
IL-6: factor generated by M1 macrophages; cytokine	sensitize sensory neurons	
tumor necrosis factor (TNF)-α	sensitize sensory neurons	
